Reference: ChEMBL document CHEMBL1201862, “PubChem BioAssay data set” (2004)
Calls of active or inactive are those of the source.

What was measured:
[1] = molecular target: T1, Latent membrane protein 1 (Human herpesvirus 4 (strain B95-8), UniProt P03230); assay: TES1-eGFP NF-kB reporter inhibition versus Tet-On dsRED, dose response, selectivity assay for LMP1 NF-kB inhibitor project, imaging, HEK293T, dual-color eGFP/dsRED, cherry-picks (AID 588398); type: functional, cell-based
T1 sequence (P03230 whole entry): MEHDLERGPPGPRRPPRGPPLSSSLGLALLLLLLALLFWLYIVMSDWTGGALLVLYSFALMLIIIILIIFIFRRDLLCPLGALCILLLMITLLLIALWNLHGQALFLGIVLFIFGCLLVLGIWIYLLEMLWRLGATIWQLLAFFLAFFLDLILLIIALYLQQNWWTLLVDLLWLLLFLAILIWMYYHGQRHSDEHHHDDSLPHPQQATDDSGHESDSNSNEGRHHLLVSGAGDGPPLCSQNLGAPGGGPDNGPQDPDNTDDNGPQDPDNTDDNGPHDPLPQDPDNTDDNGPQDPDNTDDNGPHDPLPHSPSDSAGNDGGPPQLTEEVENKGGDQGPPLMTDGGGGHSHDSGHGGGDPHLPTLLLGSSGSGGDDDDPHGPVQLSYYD

[2] = molecular target: T2, Type-1 angiotensin II receptor (Homo sapiens, UniProt P30556); assay: AT1 receptor antagonists, dose response, selectivity assay for APJ receptor antagonist project, cell-based, uHTS hits (AID 463214); type: functional;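 further: antagonist potency against angiotensin II stimulated AT1 response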
T2 sequence (P30556 whole entry): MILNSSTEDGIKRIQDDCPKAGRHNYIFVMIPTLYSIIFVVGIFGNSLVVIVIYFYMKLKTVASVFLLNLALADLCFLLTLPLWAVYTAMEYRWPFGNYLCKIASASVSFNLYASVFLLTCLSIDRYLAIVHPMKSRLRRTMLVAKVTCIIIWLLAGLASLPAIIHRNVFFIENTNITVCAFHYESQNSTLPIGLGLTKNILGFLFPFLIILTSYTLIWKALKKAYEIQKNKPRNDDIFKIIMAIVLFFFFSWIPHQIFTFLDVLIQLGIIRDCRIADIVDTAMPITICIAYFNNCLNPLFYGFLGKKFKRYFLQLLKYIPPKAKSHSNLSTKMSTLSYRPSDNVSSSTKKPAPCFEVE

Beta-galactosidase = Beta-galactosidase (Escherichia coli, UniProt Q8VNN2); assay: PubChem AID 485352; type: functional
Sequence of Beta-galactosidase (Q8VNN2 whole entry): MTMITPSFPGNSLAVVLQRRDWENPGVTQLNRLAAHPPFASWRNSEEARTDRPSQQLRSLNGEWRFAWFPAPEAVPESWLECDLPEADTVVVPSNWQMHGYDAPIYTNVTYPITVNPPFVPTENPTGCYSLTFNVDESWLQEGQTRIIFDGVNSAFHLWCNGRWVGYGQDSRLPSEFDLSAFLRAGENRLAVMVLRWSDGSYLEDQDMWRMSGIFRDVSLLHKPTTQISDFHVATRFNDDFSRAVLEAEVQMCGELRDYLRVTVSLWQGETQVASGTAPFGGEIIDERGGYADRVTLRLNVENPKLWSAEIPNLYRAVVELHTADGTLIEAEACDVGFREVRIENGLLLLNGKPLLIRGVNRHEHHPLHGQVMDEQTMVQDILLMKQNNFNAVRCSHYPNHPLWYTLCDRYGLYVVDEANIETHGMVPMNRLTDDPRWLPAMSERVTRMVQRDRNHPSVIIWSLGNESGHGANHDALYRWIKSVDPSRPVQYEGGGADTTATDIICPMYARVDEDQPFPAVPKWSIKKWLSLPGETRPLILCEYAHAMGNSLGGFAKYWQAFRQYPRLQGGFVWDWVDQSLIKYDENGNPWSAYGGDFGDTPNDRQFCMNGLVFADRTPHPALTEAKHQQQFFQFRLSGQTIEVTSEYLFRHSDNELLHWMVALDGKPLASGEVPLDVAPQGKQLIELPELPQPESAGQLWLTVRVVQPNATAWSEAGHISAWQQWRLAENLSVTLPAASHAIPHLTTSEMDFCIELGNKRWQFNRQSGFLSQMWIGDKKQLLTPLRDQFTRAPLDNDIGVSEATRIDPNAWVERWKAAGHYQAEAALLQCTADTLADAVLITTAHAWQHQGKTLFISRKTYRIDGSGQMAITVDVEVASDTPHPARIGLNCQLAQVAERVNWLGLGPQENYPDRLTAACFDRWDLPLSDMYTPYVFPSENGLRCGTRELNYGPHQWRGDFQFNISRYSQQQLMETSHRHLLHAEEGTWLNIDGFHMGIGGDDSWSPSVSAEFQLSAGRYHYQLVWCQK

[3] = molecular target: T3, Short transient receptor potential channel 4 (Mus musculus, UniProt Q9QUQ5); assay: mouse TRPC4 channel activators, dose response, cell-based, HEK293 TRPC4/mu-opioid, Fluo-4 calcium (AID 434937); type: functional
T3 sequence (Q9QUQ5 whole entry): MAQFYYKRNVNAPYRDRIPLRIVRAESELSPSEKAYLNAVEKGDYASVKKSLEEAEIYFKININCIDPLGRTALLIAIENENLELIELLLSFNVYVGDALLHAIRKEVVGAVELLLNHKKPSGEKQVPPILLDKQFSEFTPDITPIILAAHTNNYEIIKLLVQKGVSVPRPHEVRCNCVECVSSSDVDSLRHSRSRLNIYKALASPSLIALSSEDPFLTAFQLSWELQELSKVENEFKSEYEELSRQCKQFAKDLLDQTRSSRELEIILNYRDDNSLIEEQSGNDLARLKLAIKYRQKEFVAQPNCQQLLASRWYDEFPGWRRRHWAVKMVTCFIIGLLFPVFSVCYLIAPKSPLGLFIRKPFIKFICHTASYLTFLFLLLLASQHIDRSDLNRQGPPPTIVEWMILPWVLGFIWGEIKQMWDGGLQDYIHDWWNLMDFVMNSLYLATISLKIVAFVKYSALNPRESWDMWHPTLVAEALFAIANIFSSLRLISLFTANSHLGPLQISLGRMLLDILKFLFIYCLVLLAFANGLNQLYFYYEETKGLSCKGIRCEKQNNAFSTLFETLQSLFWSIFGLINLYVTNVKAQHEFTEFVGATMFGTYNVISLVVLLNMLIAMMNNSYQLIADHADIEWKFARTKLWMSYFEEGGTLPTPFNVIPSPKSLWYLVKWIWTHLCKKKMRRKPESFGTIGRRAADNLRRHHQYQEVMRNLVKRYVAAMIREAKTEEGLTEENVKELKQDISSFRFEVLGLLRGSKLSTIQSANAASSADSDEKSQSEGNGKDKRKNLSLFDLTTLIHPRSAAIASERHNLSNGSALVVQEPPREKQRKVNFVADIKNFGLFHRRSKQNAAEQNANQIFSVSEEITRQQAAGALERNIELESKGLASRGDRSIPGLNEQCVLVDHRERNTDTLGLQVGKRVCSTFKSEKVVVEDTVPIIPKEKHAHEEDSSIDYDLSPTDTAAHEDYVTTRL

[4] = molecular target: T3, Short transient receptor potential channel 4; assay: mouse TRPC4 channel inhibitors, dose response, cell-based, HEK293 TRPC4/mu-opioid, Fluo-4 calcium (AID 434942); type: functional;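 further: potency of inhibitors blocking the TRPC4 calcium response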
[5] = inhibitors of clade B AD8 Env fusion, dose response, cell-based, cherry-pick (AID 652062); type: functional;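 further: luciferase signal from cell-cell fusion driven by HIV-1 clade B AD8 Env; potency is for inhibitors of fusion seen as a drop in luminescence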
[6] = inhibitors of HIV Env-driven cell fusion, dose response, cherry-pick (AID 652057); type: functional, cell-based
[7] = ZM109 Env clade C HIV-1 fusion inhibitors, dose response, HeLa effector, CEM target cells, luciferase, cherry-pick (AID 652058); type: functional, cell-based
[8] = CEM21 lymphoblast cell cytotoxicity, dose response, cytotoxicity control for viral fusion inhibitor project, CellTiter-Glo luminescence, cherry-picked (AID 652042); type: functional, cell-based;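 further: potency for signal decrease meaning cytotoxicity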
[9] = off-target signal loss in HeLa-CEM21 co-culture – HeLa F-luc CTL cells, cherry-picked, counter-screen for HIV-1 Env fusion inhibitor project, dose response (AID 652040); type: functional, cell-based;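 further: potency for signal decrease marking cytotoxic or nonspecific inhibition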
Cytochrome P450 1A2 = molecular target: T4, Cytochrome P450 1A2 (Homo sapiens, UniProt P05177);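 further: PubChem cytochrome P450 panel assay, CYP1A2 panel member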
T4 sequence (P05177 whole entry): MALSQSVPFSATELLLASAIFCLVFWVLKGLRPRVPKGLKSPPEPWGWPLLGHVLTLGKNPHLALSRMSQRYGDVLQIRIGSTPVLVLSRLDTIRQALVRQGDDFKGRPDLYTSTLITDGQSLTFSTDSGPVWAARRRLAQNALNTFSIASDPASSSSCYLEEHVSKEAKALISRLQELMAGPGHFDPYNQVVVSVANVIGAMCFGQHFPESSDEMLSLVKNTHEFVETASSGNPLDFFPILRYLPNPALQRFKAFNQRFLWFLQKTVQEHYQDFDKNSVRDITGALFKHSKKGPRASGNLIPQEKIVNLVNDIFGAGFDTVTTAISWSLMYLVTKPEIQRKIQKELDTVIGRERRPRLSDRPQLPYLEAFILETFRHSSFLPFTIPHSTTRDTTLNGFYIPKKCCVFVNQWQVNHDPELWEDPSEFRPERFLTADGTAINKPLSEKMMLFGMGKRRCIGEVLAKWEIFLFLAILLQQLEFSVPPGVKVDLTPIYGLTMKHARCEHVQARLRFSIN

Cytochrome P450 2C19 = Cytochrome P450 2C19 (Homo sapiens, UniProt P33261); assay: Cytochrome panel assay with activity outcomes. Panel member name: p450-cyp2c19 Compounds with AC50 equal or less than 10 uM are considered active; type: functional; conditions: read-out: AC50
Sequence of Cytochrome P450 2C19 (P33261 whole entry): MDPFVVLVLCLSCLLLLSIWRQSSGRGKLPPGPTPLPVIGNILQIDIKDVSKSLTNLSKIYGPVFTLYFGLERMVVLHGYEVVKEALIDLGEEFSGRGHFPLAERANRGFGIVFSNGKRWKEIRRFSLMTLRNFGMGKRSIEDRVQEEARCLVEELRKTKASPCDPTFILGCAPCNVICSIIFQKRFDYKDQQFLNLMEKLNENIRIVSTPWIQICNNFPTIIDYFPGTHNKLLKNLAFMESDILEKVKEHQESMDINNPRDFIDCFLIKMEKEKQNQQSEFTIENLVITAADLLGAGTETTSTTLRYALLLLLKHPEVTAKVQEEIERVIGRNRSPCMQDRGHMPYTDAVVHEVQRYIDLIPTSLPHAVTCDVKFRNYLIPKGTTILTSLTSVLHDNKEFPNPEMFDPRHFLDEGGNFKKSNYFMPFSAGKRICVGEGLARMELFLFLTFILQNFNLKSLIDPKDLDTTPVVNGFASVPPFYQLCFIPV

Cytochrome P450 2C9 = Cytochrome P450 2C9 (Homo sapiens, UniProt P11712)
Sequence of Cytochrome P450 2C9 (P11712 whole entry): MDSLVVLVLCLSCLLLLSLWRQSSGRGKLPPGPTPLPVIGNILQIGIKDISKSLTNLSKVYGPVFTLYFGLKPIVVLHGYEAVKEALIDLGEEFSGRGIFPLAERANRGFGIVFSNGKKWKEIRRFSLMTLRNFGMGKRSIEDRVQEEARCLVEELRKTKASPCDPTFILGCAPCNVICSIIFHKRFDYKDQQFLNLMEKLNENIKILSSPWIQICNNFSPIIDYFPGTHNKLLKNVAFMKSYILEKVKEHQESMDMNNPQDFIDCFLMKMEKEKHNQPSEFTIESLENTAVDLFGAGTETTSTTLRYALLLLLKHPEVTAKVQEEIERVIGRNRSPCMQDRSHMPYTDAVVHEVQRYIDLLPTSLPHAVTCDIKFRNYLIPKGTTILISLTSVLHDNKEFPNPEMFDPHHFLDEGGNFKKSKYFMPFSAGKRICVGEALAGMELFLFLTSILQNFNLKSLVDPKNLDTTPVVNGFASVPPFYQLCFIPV

[10] = inhibitors of firefly luciferase expression or activity, dose response, H4 neuroglioma cells, luminescence (AID 1990); type: functional, cell-based
[11] = inhibitors of SNCA 5'UTR-driven reporter translation, confirmation, H4 neuroglioma cells, luminescence (AID 1988); type: functional, cell-based
[12] = Luminescence Cell-Based Dose Response HTS to Identify Inhibitors of 5'UTR Stem-Loop Driven Prion Protein mRNA Translation in H4 Neuroglioblastoma Cells. [Related pubchem assays: 1827 (Project Summary), 1813 (Primary HTS)]; type: functional
Coagulation factor XII = molecular target: T5, Coagulation factor XII (Homo sapiens, UniProt P00748); type: functional;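 further: activated factor XIIa alpha cleaving a fluorogenic AMC peptide substrate; inhibitor potency from loss of enzyme activity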
T5 sequence (P00748 whole entry): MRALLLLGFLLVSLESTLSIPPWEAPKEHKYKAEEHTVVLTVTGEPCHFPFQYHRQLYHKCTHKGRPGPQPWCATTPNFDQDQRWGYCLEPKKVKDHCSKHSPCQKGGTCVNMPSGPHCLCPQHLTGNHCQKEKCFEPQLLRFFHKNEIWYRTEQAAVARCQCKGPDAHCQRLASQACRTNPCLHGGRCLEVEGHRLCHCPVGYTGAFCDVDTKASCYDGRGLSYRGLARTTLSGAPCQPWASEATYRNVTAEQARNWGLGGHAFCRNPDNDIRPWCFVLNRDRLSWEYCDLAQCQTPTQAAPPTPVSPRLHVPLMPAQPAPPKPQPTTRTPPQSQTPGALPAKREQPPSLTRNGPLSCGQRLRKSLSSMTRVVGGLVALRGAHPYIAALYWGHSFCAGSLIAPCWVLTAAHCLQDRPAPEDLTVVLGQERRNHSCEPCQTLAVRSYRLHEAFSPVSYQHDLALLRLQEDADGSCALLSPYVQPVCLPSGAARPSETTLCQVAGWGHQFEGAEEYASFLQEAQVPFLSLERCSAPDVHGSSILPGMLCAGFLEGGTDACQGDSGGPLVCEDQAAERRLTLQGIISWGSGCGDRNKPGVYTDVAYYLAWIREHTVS

Escherichia coli = assay: microbe, parasite or virus in culture
[13] = Luminescence Cell-Based Dose Retest to Confirm Inhibitors of Cancer Stem Cells. [Related pubchem assays (depositor defined):AID2717, AID2721]; type: functional; conditions: Homo sapiens
HEK293 = assay: inhibitors of LMP1-driven NF-kB reporter, dose response, cell-based, HEK293, luciferase, cherry-pick (AID 588343); type: functional; conditions: Homo sapiens

Structure (SMILES): COc1cc(OC)cc(C(=O)N[C@H](C(=O)OCC(=O)c2ccc(C)c([N+](=O)[O-])c2)C(C)C)c1
- AC50 [1]: 42.8 µM (active)
- IC50 [2]: > 40 µM (not active)
- EC50 (Beta-galactosidase): > 40 µM (inactive)

Structure (SMILES): O=C(N/N=C/c1cccnc1)c1ccccc1OCc1ccc(Cl)cc1
- EC50 [3]: 3.35 µM (active)
- EC50 [4]: 1.5 µM (active)

Structure (SMILES): COC(=O)[C@]12C[C@H](CC(=O)NCc3cccs3)C(=O)N(CCC3=CCCCC3)C1=C[C@H](C(C)(C)C)O[C@@H]2C
- AC50 [5]: 5.01 µM (active)
- AC50 [6]: 1.18 µM (active)
- AC50 [7]: 1.91 µM (active)
- AC50 [8]: 51.6 µM (active)
- AC50 [9]: 1.72 µM (active)

Structure (SMILES): Cc1ccc(C(=O)NC2CCCCC2)cc1
- AC50 (Cytochrome P450 1A2): 22.4 µM (inconclusive)
- AC50 (Cytochrome P450 2C19): 25.1 µM (inconclusive)
- AC50 (Cytochrome P450 2C9): inconclusive

Structure (SMILES): Cc1ccc2c(c1)nnn2C1CCN(CC(=O)N2c3ccccc3CC2C)CC1 (centres undefined)
- AC50 (Cytochrome P450 1A2): 6.31 µM (inconclusive)
- EC50 [10]: > 120 µM (not active)
- EC50 [11]: 81.6 µM (active)
- EC50 [12]: > 120 µM (not active)
- AC50 (Cytochrome P450 2C9): inconclusive

Structure (SMILES): O=C(CN1C(=O)C2C3CC(C(Br)C3Br)C2C1=O)OCC(=O)c1cccc([N+](=O)[O-])c1 (centres undefined)
- IC50 [2]: 20.4 µM (not active)
- EC50 (Beta-galactosidase): > 40 µM (inactive)

Structure (SMILES): Cn1c(C(N)=O)cnc1Sc1ncc(C(F)(F)F)cc1Cl
- AC50 (Cytochrome P450 1A2): 28.2 µM (inconclusive)
- AC50 (Cytochrome P450 2C9): inconclusive

Structure (SMILES): CCC(=O)NC(C)C(c1cccs1)N1CCN(c2ccccc2)CC1 (centres undefined)
- EC50 [3]: 0.421 µM (active)

Structure (SMILES): COc1ccccc1NC(=O)CSc1nnnn1C
- IC50 (Coagulation factor XII): > 50 µM (inactive)

Structure (SMILES): CCCCN1C(=O)C(O)(c2ccccc2)c2cc(Br)ccc21 (centres undefined)
- AC50 [5]: 7.82 µM (active)
- AC50 [6]: 4.89 µM (active)
- AC50 [7]: 4.73 µM (active)
- AC50 [8]: 48.2 µM (active)
- AC50 [9]: 6.01 µM (active)

Structure (SMILES): CC(=O)NC(Cc1c[nH]cn1)C(=O)O (centres undefined)
- AC50 (Escherichia coli): 29.2 µM (active)

Structure (SMILES): Cn1c(-c2ccccc2)cnc1SCC(N)=O
- IC50 (Coagulation factor XII): > 50 µM (inactive)

Structure (SMILES): CN1CCN(/N=C/c2ccc(N(c3ccccc3)c3ccccc3)cc2)CC1
- AC50 [1]: 0.147 µM (active)
- AC50 [13]: 5.11 µM (active)
- AC50 (HEK293): 0.907 µM (active)
